Data on one compound can be found in publication PMC3961306, “Comparison of the Cancer Gene Targeting and Biochemical Selectivities of All Targeted Kinase Inhibitors Approved for Clinical Use” (PLoS ONE, 2014).

Test in all cases: Kinase profiling in a biochemical assay panel (mobility shift assays and ELISA), %-inhibition at 1 μM; selectivity entropy
On the technique in general: An ELISA detects its analyte on a solid surface through an enzyme-linked reagent.

In assay [1] the target is panel of more than 300 wild-type and mutant kinases (313 kinase panel) (Homo sapiens, UniProt P07949, G691S). The settings on record: kinase RET(G691S); 1 μM.
Assay [2] deals with panel of more than 300 wild-type and mutant kinases (313 kinase panel) (Homo sapiens, UniProt P07949, M918T). The settings on record: kinase RET(M918T); 1 μM.
Assay [3] has as its target panel of more than 300 wild-type and mutant kinases (313 kinase panel) (Homo sapiens, UniProt P16234, T674I). Particulars: kinase PDGFRα(T674I); 1 μM.
Assay [4] concerns the target panel of more than 300 wild-type and mutant kinases (313 kinase panel) (Homo sapiens, UniProt P19784). The settings on record: kinase CK2α2/β; 1 μM compound.
The target in assay [5] is T1, panel of more than 300 wild-type and mutant kinases (313 kinase panel) (Homo sapiens, UniProt P45985).
T1 sequence (P45985 1-399): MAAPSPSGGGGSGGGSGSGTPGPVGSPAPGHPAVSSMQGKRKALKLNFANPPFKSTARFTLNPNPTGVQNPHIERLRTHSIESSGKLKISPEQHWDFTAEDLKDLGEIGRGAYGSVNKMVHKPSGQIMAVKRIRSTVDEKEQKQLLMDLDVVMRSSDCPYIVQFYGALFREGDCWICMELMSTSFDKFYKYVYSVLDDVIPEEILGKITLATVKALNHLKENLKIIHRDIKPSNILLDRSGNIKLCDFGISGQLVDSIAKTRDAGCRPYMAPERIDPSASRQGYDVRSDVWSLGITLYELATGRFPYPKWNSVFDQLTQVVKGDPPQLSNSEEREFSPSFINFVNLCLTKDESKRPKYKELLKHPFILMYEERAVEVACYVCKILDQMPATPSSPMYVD
Particulars: kinase MAP2K4; compound at 1 μM.

Assay [6] addresses panel of more than 300 wild-type and mutant kinases (313 kinase panel) (Homo sapiens, UniProt P51451). Particulars: kinase BLK; 1 μM compound.
Assay [7] has as its target T2, panel of more than 300 wild-type and mutant kinases (313 kinase panel) (Homo sapiens, UniProt P53778).
T2 sequence (P53778 1-367): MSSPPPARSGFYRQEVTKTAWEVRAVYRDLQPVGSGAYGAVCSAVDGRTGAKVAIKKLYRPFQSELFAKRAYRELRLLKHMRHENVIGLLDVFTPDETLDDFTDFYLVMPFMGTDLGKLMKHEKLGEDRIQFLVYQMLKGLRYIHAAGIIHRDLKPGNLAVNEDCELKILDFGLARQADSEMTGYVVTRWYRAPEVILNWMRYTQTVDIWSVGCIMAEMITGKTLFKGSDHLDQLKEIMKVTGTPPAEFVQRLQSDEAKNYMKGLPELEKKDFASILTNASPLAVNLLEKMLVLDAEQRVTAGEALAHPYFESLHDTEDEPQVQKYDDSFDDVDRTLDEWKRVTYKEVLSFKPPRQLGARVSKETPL
Particulars: kinase p38γ; 1 μM.

For assay [8], the target named is panel of more than 300 wild-type and mutant kinases (313 kinase panel) (Homo sapiens, UniProt Q13555). The settings on record: kinase CaMK2γ; 1 μM compound.
Assay [9] addresses panel of more than 300 wild-type and mutant kinases (313 kinase panel) (Homo sapiens, UniProt Q13627). Particulars: kinase DYRK1A; compound at 1 μM.
For assay [10], the target named is panel of more than 300 wild-type and mutant kinases (313 kinase panel) (Homo sapiens, UniProt Q16288). Particulars: kinase TRKC; 1 μM.
Assay [11] addresses panel of more than 300 wild-type and mutant kinases (313 kinase panel) (Homo sapiens, UniProt Q16512). Particulars: kinase PKN1; 1 μM.
Assay [12] addresses T3, panel of more than 300 wild-type and mutant kinases (313 kinase panel) (Homo sapiens, UniProt Q9UHD2).
T3 sequence (Q9UHD2 1-729): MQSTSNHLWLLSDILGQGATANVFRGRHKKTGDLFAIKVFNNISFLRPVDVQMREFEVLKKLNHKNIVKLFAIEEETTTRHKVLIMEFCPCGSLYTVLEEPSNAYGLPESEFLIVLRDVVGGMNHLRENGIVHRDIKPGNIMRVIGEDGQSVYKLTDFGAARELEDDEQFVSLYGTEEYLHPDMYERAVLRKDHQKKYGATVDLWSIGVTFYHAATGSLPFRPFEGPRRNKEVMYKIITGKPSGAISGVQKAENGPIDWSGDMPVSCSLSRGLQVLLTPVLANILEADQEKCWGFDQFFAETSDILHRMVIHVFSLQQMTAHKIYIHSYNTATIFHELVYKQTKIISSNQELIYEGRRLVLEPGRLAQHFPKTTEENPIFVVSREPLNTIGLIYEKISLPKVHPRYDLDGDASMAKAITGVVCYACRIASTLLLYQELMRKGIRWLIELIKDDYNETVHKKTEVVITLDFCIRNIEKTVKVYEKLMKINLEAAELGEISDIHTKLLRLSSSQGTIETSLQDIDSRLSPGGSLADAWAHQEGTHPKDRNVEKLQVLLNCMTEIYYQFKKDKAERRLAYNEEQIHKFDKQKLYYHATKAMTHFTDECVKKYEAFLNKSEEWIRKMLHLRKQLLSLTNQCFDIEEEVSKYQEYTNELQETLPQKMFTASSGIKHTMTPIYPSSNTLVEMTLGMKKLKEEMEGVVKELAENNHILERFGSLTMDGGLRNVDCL
The settings on record: kinase TBK1; 1 μM.

As for `CC(=O)Nc1cccc(-n2c(=O)n(C3CC3)c(=O)c3c(Nc4ccc(I)cc4F)n(C)c(=O)c(C)c32)c1` [trametinib], the “%-inhibition of RET(G691S)” value in [1] was -1.48%. In addition, the “%-inhibition of RET(M918T)” value in assay [2] is -1.41%. The “%-inhibition of PDGFRα(T674I)” value in assay [3] is -0.248%. The “%-inhibition, CK2α2/β” value in assay [4] is listed as -5.29%. Besides, the “%-inhibition of MAP2K4” value in [5] was found to be 2.18%. Moreover, the “%-inhibition, BLK” value in [6] was -2.79%. Moreover, the “%-inhibition of p38γ” value in assay [7] came out at 0.684%. The “%-inhibition, CaMK2γ” value in assay [8] came out at 7%. In assay [9], the “%-inhibition of DYRK1A” value is recorded as -1.23%. The “%-inhibition of TRKC” value in [10] is reported as -7.43%. In addition, in assay [11], the “%-inhibition of PKN1” value amounted to 3.71%. For the same compound, the “%-inhibition of TBK1” value in assay [12] is -4.47%.
